Experimental data taken from PubChem BioAssay AID330 (DTP/NCI, 2004).
“And” between values parts separate entries of the source, which are not always exact repeats. Identical values can stand only once. Toxic doses and inconclusive results are not listed.

Tested on: P388 leukemia ip, CD2F1 mice, survival T/C
Experiment: NCI In Vivo Anticancer Drug Screen. Data for tumor model P388 Leukemia (intraperitoneal) in CD2F1 (CDF1) mice
Settings: endpoint: median survival time, higher = longer survival
How it was run: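 Mice carrying the transplanted tumor received test compound or vehicle. Survival was recorded in each group, and the value is the treated-group measurement divided by that of the vehicle-treated control group.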

[1] = dose: 100.0 mg/kg/injection, schedule: Q04DX003 (ip), vehicle: saline
[2] = dose: 200.0 mg/kg/injection, schedule: Q04DX003 (ip), vehicle: saline
[3] = dose: 50.0 mg/kg/injection, schedule: Q01DX005 (ip), vehicle: saline
[4] = dose: 50.0 mg/kg/injection, schedule: Q01DX005 (ip), vehicle: Klucel (hydroxypropylcellulose) (HPC)
[5] = dose: 50.0 mg/kg/injection, schedule: Q01DX009 (ip), vehicle: saline with Tween-80
[6] = dose: 100.0 mg/kg/injection, schedule: Q01DX009 (ip), vehicle: saline with Tween-80
[7] = dose: 200.0 mg/kg/injection, schedule: Q01DX009 (ip), vehicle: saline with Tween-80
[8] = dose: 60.0 mg/kg/injection, schedule: Q01DX005 (ip), vehicle: saline with Tween-80
[9] = dose: 120.0 mg/kg/injection, schedule: Q01DX005 (ip), vehicle: saline with Tween-80
[10] = dose: 50.0 mg/kg/injection, schedule: Q01DX005 (ip), vehicle: saline with Tween-80
[11] = dose: 100.0 mg/kg/injection, schedule: Q01DX005 (ip), vehicle: saline with Tween-80
[12] = dose: 200.0 mg/kg/injection, schedule: Q01DX005 (ip), vehicle: saline with Tween-80
[13] = dose: 100.0 mg/kg/injection, schedule: Q01DX005 (ip), vehicle: Klucel (hydroxypropylcellulose) (HPC)

Sc1ccccc1N=Cc1cccs1
T/C (dose: 50.0 mg/kg/injection, schedule: Q01DX009 (ip), vehicle: saline): 90 % of control
T/C (dose: 100.0 mg/kg/injection, schedule: Q01DX009 (ip), vehicle: saline): 99 % of control
T/C (dose: 200.0 mg/kg/injection, schedule: Q01DX009 (ip), vehicle: saline): 96 % of control

CNc1cc(NC)c2c(c1N)C(=O)c1ccccc1C2=O
T/C (dose: 50.0 mg/kg/injection, schedule: Q04DX002 (ip), vehicle: Klucel (hydroxypropylcellulose) (HPC)): 103 % of control
T/C (dose: 100.0 mg/kg/injection, schedule: Q04DX002 (ip), vehicle: Klucel (hydroxypropylcellulose) (HPC)): 100 % of control
T/C (dose: 200.0 mg/kg/injection, schedule: Q04DX002 (ip), vehicle: Klucel (hydroxypropylcellulose) (HPC)): 101 % of control

c1ccc(C[N+]23CC[N+](Cc4ccccc4)(CC2)CC3)cc1
T/C (dose: 50.0 mg/kg/injection, schedule: Q04DX003 (ip), vehicle: saline): 95 % of control
T/C [1]: 108 % of control
T/C [2]: 95 % of control

CC(=O)OCC#CCN1CCOCC1
T/C [3]: 124 % of control
T/C (dose: 60.0 mg/kg/injection, schedule: Q01DX005 (ip), vehicle: suspension in saline): 102 % of control
T/C (dose: 120.0 mg/kg/injection, schedule: Q01DX005 (ip), vehicle: suspension in saline): 100 % of control

COc1ccc2c3c(ccc2c1)C(=O)/C(=C\O)CC3
T/C (dose: 12.5 mg/kg/injection, schedule: Q01DX005 (ip), vehicle: Klucel (hydroxypropylcellulose) (HPC)): 103 % of control
T/C (dose: 25.0 mg/kg/injection, schedule: Q01DX005 (ip), vehicle: Klucel (hydroxypropylcellulose) (HPC)): 93 % of control
T/C [4]: 95 % of control and 97 % of control

COc1cccc2c1C(=O)c1c(O)c3c(c(O)c1C2=O)C[C@@](O)(C(C)=O)C[C@@H]3OC1CC(N2CCOCC2C#N)C(O)C(C)O1 (stereo partly specified)
T/C (dose: 0.2 mg/kg/injection, schedule: Q04DX003 (ip), vehicle: water): 191 % of control
T/C (dose: 0.39 mg/kg/injection, schedule: Q04DX003 (ip), vehicle: distilled water + Tween-80): 187 % of control
T/C (dose: 0.39 mg/kg/injection, schedule: Q04DX003 (ip), vehicle: water): 207 % of control
T/C (dose: 0.78 mg/kg/injection, schedule: Q04DX003 (ip), vehicle: water): 95 % of control

CCN(CC)CC1(C)NN=C2C(n3cccc3)=CC=CN21 (stereo unspecified)
T/C (dose: 60.0 mg/kg/injection, schedule: Q01DX005 (ip), vehicle: saline): 104 % of control
T/C (dose: 120.0 mg/kg/injection, schedule: Q01DX005 (ip), vehicle: saline): 100 % of control

COc1ccc2c(c1)OC(C)(C)C=C2
T/C (dose: 8.75 mg/kg/injection, schedule: Q01DX009 (ip), vehicle: saline with Tween-80): 87 % of control
T/C (dose: 17.5 mg/kg/injection, schedule: Q01DX009 (ip), vehicle: saline with Tween-80): 98 % of control
T/C (dose: 35.0 mg/kg/injection, schedule: Q01DX009 (ip), vehicle: saline with Tween-80): 106 % of control
T/C (dose: 70.0 mg/kg/injection, schedule: Q01DX009 (ip), vehicle: saline with Tween-80): 110 % of control

O=C(O)CCCCCCCCCCC1C=CCC1 (stereo unspecified)
T/C [1]: 93 % of control
T/C [2]: 93 % of control
T/C (dose: 400.0 mg/kg/injection, schedule: Q04DX003 (ip), vehicle: saline): 93 % of control

CN(C)CCC[N+](C)(C)Cc1ccc(C[N+](C)(C)CCC[N+](C)(C)Cc2ccc(CCl)cc2)cc1
T/C (dose: 12.5 mg/kg/injection, schedule: Q01DX009 (ip), vehicle: saline): 106 % of control
T/C (dose: 25.0 mg/kg/injection, schedule: Q01DX009 (ip), vehicle: saline): 92 % of control

CC(F)C(C)C(N)C(=O)O (stereo unspecified)
T/C [5]: 86 % of control
T/C [6]: 91 % of control
T/C [7]: 99 % of control

COc1ccccc1NC(=O)CC(=O)N1N=C(C)C(N=Nc2cccc(C(=O)O)c2)C1=O (stereo unspecified)
T/C [8]: 98 % of control
T/C [9]: 98 % of control

C/C=C(\C)C(=O)O[C@@H]1[C@H]2C(C)=CC(=O)[C@@H](O)[C@]2(C)[C@H]2[C@@]3(O)OC[C@@]24[C@@H]1OC(=O)C[C@H]4[C@@H](C)[C@H]3O
T/C (dose: 0.25 mg/kg/injection, schedule: Q01DX009 (ip), vehicle: other): 111 % of control
T/C (dose: 0.6 mg/kg/injection, schedule: Q01DX009 (ip), vehicle: other): 163 % of control

COc1cc(/C=C2\CCC/C(=C\c3ccc(OCC4CO4)c(OC)c3)C2=O)ccc1OCC1CO1 (stereo unspecified)
T/C [5]: 101 % of control
T/C [6]: 95 % of control
T/C [7]: 94 % of control

COc1ccc(C2c3cc4c(cc3OC(C)(OC)C2C)OCO4)c(OC)c1 (stereo unspecified)
T/C [10]: 88 % of control
T/C [11]: 88 % of control
T/C [12]: 91 % of control

NC(=O)c1nn(C2OC(CO)C(O)C2O)c2ncnc(N)c12 (stereo unspecified)
T/C (dose: 3.0 mg/kg/injection, schedule: Q01DX009 (ip), vehicle: Klucel (hydroxypropylcellulose) (HPC)): 152 % of control
T/C (dose: 6.0 mg/kg/injection, schedule: Q01DX009 (ip), vehicle: Klucel (hydroxypropylcellulose) (HPC)): 190 % of control

COc1ccc2c(c1)OC(C)(C)C(c1ccccc1)=C2c1ccc2c(c1)NC(=O)CO2
T/C [10]: 99 % of control
T/C [11]: 90 % of control
T/C [12]: 94 % of control

CC1(O)Cc2c(O)c3c(c(O)c2CC1O)C(=O)C=CC3=O (stereo unspecified)
T/C (dose: 3.13 mg/kg/injection, schedule: Q04DX003 (ip), vehicle: distilled water + Tween-80): 100 % of control
T/C (dose: 6.25 mg/kg/injection, schedule: Q04DX003 (ip), vehicle: distilled water + Tween-80): 100 % of control
T/C (dose: 12.5 mg/kg/injection, schedule: Q04DX003 (ip), vehicle: distilled water + Tween-80): 97 % of control
T/C (dose: 25.0 mg/kg/injection, schedule: Q04DX003 (ip), vehicle: distilled water + Tween-80): 100 % of control and 96 % of control

C=C(C(=C)n1nnc(C(=O)OC)c1C(=O)OC)n1nnc(C(=O)OC)c1C(=O)OC
T/C [8]: 102 % of control
T/C [9]: 101 % of control
T/C (dose: 240.0 mg/kg/injection, schedule: Q01DX005 (ip), vehicle: saline with Tween-80): 93 % of control

N#CN(Cc1ccccc1)C(c1ccccc1)(c1ccccc1)c1ccccc1
T/C (dose: 100.0 mg/kg/injection, schedule: Q01DX001 (ip), vehicle: Klucel (hydroxypropylcellulose) (HPC)): 90 % of control
T/C (dose: 200.0 mg/kg/injection, schedule: Q01DX001 (ip), vehicle: Klucel (hydroxypropylcellulose) (HPC)): 91 % of control

O=C1OC(C(Cl)(Cl)Cl)Nc2ccccc21 (stereo unspecified)
T/C [4]: 111 % of control
T/C [13]: 111 % of control

CC1=C(c2ccccc2)C2(c3ccccc3)[N-][n+]3c(ccc4ccccc43)C2(C)C1=O (stereo unspecified)
T/C [4]: 97 % of control
T/C [13]: 97 % of control

CNC(=S)NNc1cccc([N+](=O)[O-])c1
T/C (dose: 25.0 mg/kg/injection, schedule: Q01DX009 (ip), vehicle: other): 96 % of control
T/C (dose: 50.0 mg/kg/injection, schedule: Q01DX009 (ip), vehicle: other): 106 % of control
T/C (dose: 100.0 mg/kg/injection, schedule: Q01DX009 (ip), vehicle: other): 91 % of control
T/C (dose: 200.0 mg/kg/injection, schedule: Q01DX009 (ip), vehicle: other): 92 % of control

CN(CCS(=O)(=O)O)/N=C/c1ccc2c(c1)OCO2
T/C (dose: 100.0 mg/kg/injection, schedule: Q04DX003 (ip), vehicle: Klucel (hydroxypropylcellulose) (HPC)): 103 % of control
T/C (dose: 200.0 mg/kg/injection, schedule: Q04DX003 (ip), vehicle: Klucel (hydroxypropylcellulose) (HPC)): 100 % of control
T/C (dose: 400.0 mg/kg/injection, schedule: Q04DX003 (ip), vehicle: Klucel (hydroxypropylcellulose) (HPC)): 100 % of control

CC1(C)CCCc2c(-c3ccccc3)cc3c4[nH]c5ccccc5c4cc[n+]3c21
T/C [5]: 99 % of control
T/C [6]: 99 % of control
T/C [7]: 101 % of control

CN1C(c2ccccc2)CC(C)(O)CC1c1ccccc1 (stereo unspecified)
T/C [8]: 97 % of control
T/C [9]: 98 % of control

O=C(/C(=C/c1ccccc1)c1ccc(Cl)cc1)c1ccccc1
T/C (dose: 100.0 mg/kg/injection, schedule: Q04DX003 (ip), vehicle: saline with Tween-80): 116 % of control
T/C (dose: 200.0 mg/kg/injection, schedule: Q04DX003 (ip), vehicle: saline with Tween-80): 100 % of control
T/C (dose: 400.0 mg/kg/injection, schedule: Q04DX003 (ip), vehicle: saline with Tween-80): 103 % of control

O=C1CCCCCCC1C1SCCS1 (stereo unspecified)
T/C [5]: 102 % of control
T/C [6]: 109 % of control
T/C [7]: 114 % of control

CCC(C)N(CCNc1cc(OC)cc2cccnc12)CCC(C)C (stereo unspecified)
T/C [3]: 100 % of control
T/C (dose: 100.0 mg/kg/injection, schedule: Q01DX005 (ip), vehicle: saline): 97 % of control
